From ChEMBL document CHEMBL4414660, “Effect of Modifier Structure on the Activation of Leukotriene A4 Hydrolase Aminopeptidase Activity” (J Med Chem, 2019)
pIC50: −log10 of the molar value. Active and inactive are the calls of the source. No cut-off for these calls is given here.

How the values were obtained:
[1] = molecular target: T1, Leukotriene A-4 hydrolase (Homo sapiens, UniProt P09960); assay: Inhibition of N-terminal (His)6 and Xpress-tagged LTA4H (unknown origin) expressed in Escherichia coli BL21(DE3) cells assessed as reduction in aminopeptidase activity by measuring p-nitroanilide release using L-Alanine-p-nitroanilide incubated for 10 mins by UV plate reader based assay
T1 sequence (P09960 whole entry): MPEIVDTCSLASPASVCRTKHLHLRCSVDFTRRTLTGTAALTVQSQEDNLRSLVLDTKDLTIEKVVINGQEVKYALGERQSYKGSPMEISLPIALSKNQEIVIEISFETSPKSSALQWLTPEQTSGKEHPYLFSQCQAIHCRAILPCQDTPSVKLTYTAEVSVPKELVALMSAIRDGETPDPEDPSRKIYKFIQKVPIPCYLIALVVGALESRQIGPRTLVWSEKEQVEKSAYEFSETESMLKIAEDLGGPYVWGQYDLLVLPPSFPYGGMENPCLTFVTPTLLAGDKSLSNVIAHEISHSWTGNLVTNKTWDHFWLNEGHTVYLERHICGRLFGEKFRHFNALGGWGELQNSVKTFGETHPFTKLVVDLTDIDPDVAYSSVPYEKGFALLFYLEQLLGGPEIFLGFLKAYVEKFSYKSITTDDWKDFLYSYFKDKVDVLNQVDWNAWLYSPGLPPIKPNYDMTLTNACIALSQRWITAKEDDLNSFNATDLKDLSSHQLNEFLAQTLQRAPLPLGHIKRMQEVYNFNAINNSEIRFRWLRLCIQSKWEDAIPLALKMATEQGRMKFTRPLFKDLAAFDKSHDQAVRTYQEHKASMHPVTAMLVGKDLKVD

[2] = tested on: Neutrophil; assay: Inhibition of LTB4 production in A23187-stimulated human neutrophils at 0.001 to 1000 microM incubated for 30 mins by ELISA; assay type: functional, cell-based
[3] = molecular target: T1, Leukotriene A-4 hydrolase; assay: Activation of N-terminal (His)6 and Xpress-tagged LTA4H (unknown origin) expressed in Escherichia coli BL21(DE3) cells assessed as increase in aminopeptidase activity by measuring p-nitroanilide release using L-Alanine-p-nitroanilide incubated for 10 mins by UV plate reader based assay
[4] = molecular target: T2, Leukotriene A-4 hydrolase (Homo sapiens) (UniProt P09960); assay: (§1) Activation of N-terminal (His)6 and Xpress-tagged LTA4H (unknown origin) expressed in Escherichia coli BL21(DE3) cells assessed as increase in aminopeptidase activity by measuring reciprocal allosteric coupling constant for hyperbolic mixed predominantly catalytic activation using L-Alanine-p-nitroanilide incubated for 10 mins by p-nitroanilide release detection based UV plate reader based assay
T2 sequence (whole entry): T1 sequence (P09960 whole entry)

[5] = molecular target: T2, Leukotriene A-4 hydrolase (Homo sapiens); assay: as §1, with “factor by which activator affects catalytic” for “reciprocal allosteric coupling”
[6] = molecular target: T2, Leukotriene A-4 hydrolase (Homo sapiens); assay: as §1, with “dissociation” for “reciprocal allosteric coupling”, “constant (KX)” for “constant”
[7] = molecular target: T2, Leukotriene A-4 hydrolase (Homo sapiens); assay: (§2) Inhibition of N-terminal (His)6 and Xpress-tagged LTA4H (unknown origin) expressed in Escherichia coli BL21(DE3) cells assessed as reduction in aminopeptidase activity by measuring p-nitroanilide release using L-arginine-p-nitroanilide incubated for 10 mins by UV plate reader based assay
[8] = molecular target: T1, Leukotriene A-4 hydrolase; assay: as §2
[9] = molecular target: T2, Leukotriene A-4 hydrolase (Homo sapiens); assay: Inhibition of N-terminal (His)6 and Xpress-tagged LTA4H (unknown origin) expressed in Escherichia coli BL21(DE3) cells assessed as reduction in aminopeptidase activity by measuring PGP hydrolysis incubated for 30 mins

SMILES	pIC50 [1]	inhibition [2]	AC50 [3] [nM]	K [4]	fold change (FC) [5]	K [6] [µM]	inhibition [7]	pIC50 [8]	inhibition [9]
COc1ccccc1Cc1ccc(-c2csc(N)n2)cc1	7.00	–	–	–	–	–	–	–	–
COc1ccc(Cc2ccc(-c3csc(N)n3)cc2)cc1	–	Dose-dependent effect	210	4.34	26.4	0.05	Dose-dependent effect	4.86	Dose-dependent effect
CC(C)C[C@H](NC(=O)[C@@H](O)[C@H](N)Cc1ccccc1)C(=O)O	–	Active	–	–	–	–	–	–	–
